# Reference: patent US11667667B2, “Steroid derivative FXR agonist” (Chia Tai Tianqing Pharmaceutical Group Co., Ltd., priority 2016, dated 2023)
# What was measured:
# [1] = molecular target: T1, Glutathione-S-transferase-labeled FXR human protein (Homo sapiens, UniProt Q96RI1); assay: FXR biochemical experiment (AlphaScreen, coactivator recruitment); settings: for EC50: AlphaScreen, GST-FXR human protein + biotin-labeled steroid receptor coactivator, read-out: FXR enzyme activity EC50; for Emax: ratio of highest signal of the compound to that of the reference compound, read-out: FXR enzyme activity Efficacy
# T1 construct: purchased Invitrogen
# T1 sequence (Q96RI1 1-486): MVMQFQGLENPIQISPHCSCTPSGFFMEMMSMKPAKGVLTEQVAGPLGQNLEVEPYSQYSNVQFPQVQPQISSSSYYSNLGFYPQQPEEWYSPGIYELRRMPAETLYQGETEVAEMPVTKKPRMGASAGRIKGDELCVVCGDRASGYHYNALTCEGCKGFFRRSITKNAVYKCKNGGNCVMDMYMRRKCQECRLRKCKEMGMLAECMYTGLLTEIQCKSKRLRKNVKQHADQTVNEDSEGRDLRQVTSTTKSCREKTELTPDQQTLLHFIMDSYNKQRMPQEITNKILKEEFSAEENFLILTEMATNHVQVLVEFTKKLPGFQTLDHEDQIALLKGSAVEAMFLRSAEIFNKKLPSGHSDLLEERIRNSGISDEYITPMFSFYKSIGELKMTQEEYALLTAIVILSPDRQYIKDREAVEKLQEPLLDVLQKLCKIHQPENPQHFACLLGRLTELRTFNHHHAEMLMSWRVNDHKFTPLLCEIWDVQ
# Procedure: FXR Biochemical Experiment Experimental Purpose: The activation effect of the compound on FXR binding reaction was detected by AlphaScreen. […] Protein: Glutathione-S-transferase-labeled FXR human protein (Invitrogen) 2. Co-activator: Biotin-labeled steroid receptor coactivator (Anaspec) 3. […] Compound Dilution: The compound to be tested was prepared as a 40 μM DMSO solution, and then diluted 3-fold to 10 concentration points. The reference compound was prepared as a 400 μM DMSO solution, and then diluted 1.5-fold to 10 concentration points. The diluted DMSO solution was added to the wells of a 384-well plate in a volume of 150 nL per well. 2. […] 4. […] The operation during the experimental process was protected from light. The incubation was performed for 1 hour at room temperature. 5. […] The operation during the experimental process was protected from light. The incubation was performed for 1 hour at room temperature. 6. EC50 test: Envision was used with excitation at 680 nm to read the […] signals at 520-620 nm. 7. Analytical data: The data were analyzed via using Prism 5.0, and the EC50 values of the activation effects of the compounds were calculated.
# [2] = Liver-blood ratio experiment of mice via cassette dosing; format: in vivo, mice (C57BL/6J); settings: oral cassette 2 mg/kg
# Procedure: Liver-Blood Ratio Experiment of Mice Via Cassette Dosing
# 6 male mice (C57BL/6J) were grouped as an oral administration group. 5 kinds of the developed drugs were contained in the formulation, and intragastrical administration was performed at a dose of 2 mg/kg/compound (the vehicle was 0.5% HPMC aqueous solution). The five compounds were firstly and respectively dissolved in the vehicle, and sonicated or whirled to form a 1 mg/mL solution (clear solution or suspension), respectively; and then the solutions of the five compound were mixed in equal volumes (1:1:1:1:1, v:v:v:v:v) into a glass bottle. After intragastrical oral administration, plasma and liver tissue samples were collected from 3 animals at 0.5 h after administration; corresponding samples were collected from the other 3 animals at 3 h after administration. After collection, the liver tissue was homogenized by using ice-cold homogenization buffer (methanol:15 mM PBS buffer (pH 7.4)=1:2, v:v) based on the ratio of liver weight:homogenization buffer volume=1:3. Plasma and liver tissue samples were analyzed by using a five-in-one LC-MS/MS analysis method developed in advance. The concentrations of plasma and liver tissue homogenate were obtained, and the concentration ratios of liver tissue to plasma were calculated by using Excel.
SMILES,EC50 [1] [nM],Emax [1] [%],also measured
CC[C@H]1[C@@H](O)[C@@H]2[C@H](CC[C@]3(C)[C@@H]([C@H](C)CCN4CCC[C@@H]4C(=O)O)CC[C@@H]23)[C@@]2(C)CC[C@@H](O)C[C@@H]12 [Example 2],1460,114,
CC[C@H]1[C@@H](O)[C@@H]2[C@H](CC[C@]3(C)[C@@H]([C@H](C)CCN4CCC[C@H]4C(=O)O)CC[C@@H]23)[C@@]2(C)CC[C@@H](O)C[C@@H]12 [Example 3],2620,106,
CC[C@H]1[C@@H](O)[C@@H]2[C@H](CC[C@]3(C)[C@@H]([C@H](C)CCOc4ccccc4C(=O)O)CC[C@@H]23)[C@@]2(C)CC[C@@H](O)C[C@@H]12 [Example 8],,264,
CC[C@H]1[C@@H](O)[C@@H]2[C@H](CC[C@]3(C)[C@@H]([C@H](C)CCOc4cnc(C(=O)O)nc4)CC[C@@H]23)[C@@]2(C)CC[C@@H](O)C[C@@H]12 [Example 12],70,240,
CC[C@H]1[C@@H](O)[C@@H]2[C@H](CC[C@]3(C)[C@@H]([C@H](C)CCOc4cnccc4C(=O)O)CC[C@@H]23)[C@@]2(C)CC[C@@H](O)C[C@@H]12 [Example 13],390,270,
CC[C@H]1[C@@H](OC)[C@@H]2[C@H](CC[C@]3(C)[C@@H]([C@H](C)CCOCC45CC(C(=O)O)(C4)C5)CC[C@@H]23)[C@@]2(C)CC[C@@H](O)C[C@@H]12 [Example 14],730,195,
CC[C@H]1[C@@H](O)[C@@H]2[C@H](CC[C@]3(C)[C@@H]([C@H](C)CCOc4cccnc4C(=O)O)CC[C@@H]23)[C@@]2(C)CC[C@@H](O)C[C@@H]12 [Example 16],310,247,
CC[C@H]1[C@@H](O)[C@@H]2[C@H](CC[C@]3(C)[C@@H]([C@H](C)CCCOc4ccc(C(=O)O)cn4)CC[C@@H]23)[C@@]2(C)CC[C@@H](O)C[C@@H]12 [Example 18],70,187,
CC[C@H]1[C@@H](O)[C@@H]2[C@H](CC[C@]3(C)[C@@H]([C@H](C)/C=C/c4cccc(C(=O)O)c4)CC[C@@H]23)[C@@]2(C)CC[C@@H](O)C[C@@H]12 [Example 20],60,287,
CC[C@H]1[C@@H](O)[C@@H]2[C@H](CC[C@]3(C)[C@@H]([C@H](C)CCOc4ncc(C(=O)O)cc4F)CC[C@@H]23)[C@@]2(C)CC[C@@H](O)C[C@@H]12 [Example 24],,138,
CC[C@H]1[C@@H](O)[C@@H]2[C@H](CC[C@]3(C)[C@@H]([C@H](C)CCOc4cccc(C(=O)O)n4)CC[C@@H]23)[C@@]2(C)CC[C@@H](O)C[C@@H]12 [Example 25],11,233,
CC[C@H]1[C@@H](O)[C@@H]2[C@H](CC[C@]3(C)[C@@H]([C@H](C)CCOc4ccc(C(=O)NS(C)(=O)=O)cn4)CC[C@@H]23)[C@@]2(C)CC[C@@H](O)C[C@@H]12 [Example 27],6,212,
CC[C@H]1[C@@H](O)[C@@H]2[C@H](CC[C@]3(C)[C@@H]([C@H](C)CCOc4ccc(C(=O)NS(=O)(=O)C5CC5)cn4)CC[C@@H]23)[C@@]2(C)CC[C@@H](O)C[C@@H]12 [Example 28],7,219,
CC[C@H]1[C@@H](O)[C@@H]2[C@H](CC[C@]3(C)[C@@H]([C@H](C)CCOc4ccc(C(=O)NS(=O)(=O)C(C)(C)C)cn4)CC[C@@H]23)[C@@]2(C)CC[C@@H](O)C[C@@H]12 [Example 29],12,190,
CC[C@H]1[C@@H](O)[C@@H]2[C@H](CC[C@]3(C)[C@@H]([C@H](C)CCOc4ccc(C(=O)NS(=O)(=O)C(C)C)cn4)CC[C@@H]23)[C@@]2(C)CC[C@@H](O)C[C@@H]12 [Example 30],56,150,
CC[C@H]1[C@@H](O)[C@@H]2[C@H](CC[C@]3(C)[C@@H]([C@H](C)CCOc4ccc(C(=O)NS(=O)(=O)c5ccccc5)cn4)CC[C@@H]23)[C@@]2(C)CC[C@@H](O)C[C@@H]12 [Example 31],27,204,
CC[C@H]1[C@@H](O)[C@@H]2[C@H](CC[C@]3(C)[C@@H]([C@H](C)CCOc4ccc(C(=O)Nc5ccccc5)cn4)CC[C@@H]23)[C@@]2(C)CC[C@@H](O)C[C@@H]12 [Example 32],650,140,
CC[C@H]1[C@@H](O)[C@@H]2[C@H](CC[C@]3(C)[C@@H]([C@H](C)CCOc4ccc(C(=O)NC)cn4)CC[C@@H]23)[C@@]2(C)CC[C@@H](O)C[C@@H]12 [Example 33],141,194,
CC[C@H]1[C@@H](O)[C@@H]2[C@H](CC[C@]3(C)[C@@H]([C@H](C)CCOc4ccc(C(=O)NC5CC5)cn4)CC[C@@H]23)[C@@]2(C)CC[C@@H](O)C[C@@H]12 [Example 34],93,191,
CC[C@H]1[C@@H](O)[C@@H]2[C@H](CC[C@]3(C)[C@@H]([C@H](C)CCOc4ccc(C(=O)NCCS(=O)(=O)O)cn4)CC[C@@H]23)[C@@]2(C)CC[C@@H](O)C[C@@H]12 [Example 38],20,210,
CC[C@H]1[C@@H](O)[C@@H]2[C@H](CC[C@]3(C)[C@@H]([C@H](C)CCOc4ccc(C(=O)NCC(=O)O)cn4)CC[C@@H]23)[C@@]2(C)CC[C@@H](O)C[C@@H]12 [Example 39],20,205,
CC[C@H]1[C@@H](O)[C@@H]2[C@H](CC[C@]3(C)[C@@H]([C@H](C)CCCOc4ncc(C(=O)O)cc4Cl)CC[C@@H]23)[C@@]2(C)CC[C@@H](O)C[C@@H]12 [Example 40],45,197,
CC[C@H]1[C@@H](O)[C@@H]2[C@H](CC[C@]3(C)[C@@H]([C@H](C)CCOc4ccnc(C(=O)O)c4)CC[C@@H]23)[C@@]2(C)CC[C@@H](O)C[C@@H]12 [Example 41],80,127,
CC[C@H]1[C@@H](O)[C@@H]2[C@H](CC[C@]3(C)[C@@H]([C@H](C)CC(=O)Nc4cncc(C(=O)O)c4)CC[C@@H]23)[C@@]2(C)CC[C@@H](O)C[C@@H]12 [Example 42],1430,121,
CC[C@H]1[C@@H](O)[C@@H]2[C@H](CC[C@]3(C)[C@@H]([C@H](C)CCNc4cncc(C(=O)O)c4)CC[C@@H]23)[C@@]2(C)CC[C@@H](O)C[C@@H]12 [Example 43],370,193,
CC[C@H]1[C@@H](O)[C@@H]2[C@H](CC[C@]3(C)[C@@H]([C@H](C)CCOc4ccc(C(=O)OC)cn4)CC[C@@H]23)[C@@]2(C)CC[C@@H](O)C[C@@H]12 [Example 44],330,140,
"CC[C@H]1[C@@H](O)[C@@H]2[C@H](CC[C@]3(C)[C@@H]([C@H](C)CCC(=O)O)CC[C@@H]23)[C@@]2(C)CC[C@@H](O)C[C@@H]12 [INT-747, reference compound]",,,Concentration in liver ([2]; 0.5 h): 711 nM; Concentration in plasma ([2]; 0.5 h): 151 nM; Concentration ratio of liver to plasma ([2]; 0.5 h): 5; Concentration in liver ([2]; 3 h): 625 nM; Concentration in plasma ([2]; 3 h): 63 nM; Concentration ratio of liver to plasma ([2]; 3 h): 10
